Assay results from patent US10947252B2, “Inhibitors of KEAP1-Nrf2 protein-protein interaction” (Janssen Pharmaceutica NV, priority 2018, dated 2021).

Tests used:
[1] = target: Kelch domain of human KEAP1 (321-624 aa) (Homo sapiens (Human), UniProt Q14145); test: KEAP1 KELCH ThermoFluor binding assay; details: KEAP Kelch […], 1,8-ANS, pH 7.0, average of results obtained, read-out: Tf Kd;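 further: Ligand-induced melting temperature shift of E. coli-expressed KEAP1 Kelch protein, Kd estimated from concentration-response curves of ΔTm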
[2] = system: Glo-Response ARE-luc2P HEK293 cell line; test: ARE luciferase reporter cell-based assay; details: average of results obtained;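 further: luciferase signal tracks Nrf2 activation of the ARE once compounds disrupt KEAP1-Nrf2 binding, read with One-Glo reagent, DMSO serving as low control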

Sequence of Kelch domain of human KEAP1 (321-624 aa) (Q14145 321-624): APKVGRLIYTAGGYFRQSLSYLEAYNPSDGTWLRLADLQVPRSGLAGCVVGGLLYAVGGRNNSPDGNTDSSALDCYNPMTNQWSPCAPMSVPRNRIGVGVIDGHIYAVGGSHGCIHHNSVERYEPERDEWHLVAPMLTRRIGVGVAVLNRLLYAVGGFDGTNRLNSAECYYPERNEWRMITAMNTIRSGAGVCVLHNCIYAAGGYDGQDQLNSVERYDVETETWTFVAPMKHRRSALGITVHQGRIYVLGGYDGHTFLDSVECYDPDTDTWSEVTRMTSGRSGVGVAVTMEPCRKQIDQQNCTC

Structure (SMILES) | Kd [1] [nM] | EC50 ([2]; Homo sapiens, HEK293, 24 h) [nM] | EC50 ([2]; 24 hours) [nM]
Cc1cnc2c(c1)S(=O)(=O)N(Cc1cc([C@H](c3ccc4c(nnn4C4CC4)c3C)C(C)(C)C(=O)O)cnc1C)CC1(CC1)O2 (single isomer, unassigned) [Example 396, (*R)-3-(1-Cyclopropyl-4-methyl-1H-benzo[d][1,2,3]triazol-5-yl)-2,2-dimethyl-3-(6-methyl-5-((8′-methyl-1′,1′-dioxidospiro[cyclopropane-1,4′-pyrido[2,3-b][1,4,5]oxathiazepin]-2′(3′H)-yl)methyl)pyridin-3-yl)propanoic Acid] | 21800 | 4900 | 
Cc1cnc2c(c1)S(=O)(=O)N(Cc1cc([C@H](c3ccn4c(C(F)(F)F)nnc4c3C)C(C)(C)C(=O)O)ccc1C)CC1(CCOCC1)O2 (single isomer, unassigned) [Example 408, (*R)-2,2-dimethyl-3-(4-methyl-3-((8′-methyl-1′,1′-dioxido-2,3,5,6-tetrahydrospiro[pyran-4,4′-pyrido[2,3-b][1,4,5]oxathiazepin]-2′(3′H)-yl)methyl)phenyl)-3-(8-methyl-3-(trifluoromethyl)-[1,2,4]triazolo[4,3-a]pyridin-7-yl)propanoic Acid] | 1280 |  | 790
Cc1ccc([C@H](c2ccn3c(C(F)(F)F)nnc3c2C)C(C)(C)C(=O)O)cc1CN1CC2(CCOCC2)Oc2ncccc2S1(=O)=O (single isomer, unassigned) [Example 410, (*R)-3-(3-((1′,1′-dioxido-2,3,5,6-tetrahydrospiro[pyran-4,4′-pyrido[2,3-b][1,4,5]oxathiazepin]-2′(3′H)-yl)methyl)-4-methylphenyl)-2,2-dimethyl-3-(8-methyl-3-(trifluoromethyl)-[1,2,4]triazolo[4,3-a]pyridin-7-yl)propanoic Acid] | 2400 | 1220 | 
CCn1nnc2c(C)c(C(CC(=O)O)c3ccc(C)c(CN4CC5(CCOCC5)Oc5ccc(F)cc5S4(=O)=O)n3)ccc21 (single isomer, unassigned) [Example 419, (*R)-3-(1-ethyl-4-methyl-1H-benzo[d][1,2,3]triazol-5-yl)-3-(6-((8-fluoro-1,1-dioxido-2′,3′,5′,6′-tetrahydrospiro[benzo[b][1,4,5]oxathiazepine-4,4′-pyran]-2(3H)-yl)methyl)-5-methylpyridin-2-yl)propanoic Acid] | < 1 | 4.15 | 
CCn1nnc2c(C)c([C@H](c3ccc(C)c(CN4CC5(CCOCC5)Oc5ncc(C)cc5S4(=O)=O)c3)C(C)(C)C(=O)O)ccc21 (single isomer, unassigned) [Example 420, (*S)-3-(1-ethyl-4-methyl-1H-benzo[d][1,2,3]triazol-5-yl)-2,2-dimethyl-3-(4-methyl-3-((8′-methyl-1′,1′-dioxido-2,3,5,6-tetrahydrospiro[pyran-4,4′-pyrido[2,3-b][1,4,5]oxathiazepin]-2′(3′H)-yl)methyl)phenyl)propanoic Acid] | 268 | 57.8 | 
Cc1ccc([C@@H](c2ccn3c(C(F)(F)F)nnc3c2C)C(C)(C)C(=O)O)cc1CN1C[C@H]2CCCCN2c2ncc(C#N)cc2S1(=O)=O (single isomer, unassigned) [Example 422, (*S)-3-(3-(((*R)-3-cyano-5,5-dioxido-7,7a,8,9,10,11-hexahydro-6H-dipyrido[2,1-d:2′,3′-f][1,2,5]thiadiazepin-6-yl)methyl)-4-methylphenyl)-2,2-dimethyl-3-(8-methyl-3-(trifluoromethyl)-[1,2,4]triazolo[4,3-a]pyridin-7-yl)propanoic Acid] | < 1 | 1.3 | 
Cc1ccc([C@H](c2ccn3c(C(F)(F)F)nnc3c2C)C(C)(C)C(=O)O)cc1CN1C[C@H]2CCCCN2c2ncc(C#N)cc2S1(=O)=O (single isomer, unassigned) [Example 423, (*R)-3-(3-(((*R)-3-cyano-5,5-dioxido-7,7a,8,9,10,11-hexahydro-6H-dipyrido[2,1-d:2′,3′-f][1,2,5]thiadiazepin-6-yl)methyl)-4-methylphenyl)-2,2-dimethyl-3-(8-methyl-3-(trifluoromethyl)-[1,2,4]triazolo[4,3-a]pyridin-7-yl)propanoic Acid] | 586 | 409 | 
Cc1ccc([C@@H](c2ccn3c(C(F)(F)F)nnc3c2C)C(C)(C)C(=O)O)cc1CN1C[C@@H]2CCCCN2c2ncc(C#N)cc2S1(=O)=O (single isomer, unassigned) [Example 424, (*S)-3-(3-(((*S)-3-cyano-5,5-dioxido-7,7a,8,9,10,11-hexahydro-6H-dipyrido[2,1-d:2′,3′-f][1,2,5]thiadiazepin-6-yl)methyl)-4-methylphenyl)-2,2-dimethyl-3-(8-methyl-3-(trifluoromethyl)-[1,2,4]triazolo[4,3-a]pyridin-7-yl)propanoic Acid] | < 1 | 1.65 | 

Continued, in another order:

Kd [1] [nM] | Structure (SMILES) | EC50 ([2]; Homo sapiens, HEK293, 24 h) [nM] | EC50 ([2]; 24 hours) [nM]
< 1 | Cc1cnc2c(c1)S(=O)(=O)N(Cc1cc([C@@H](c3ccc4c(nnn4C4CC4)c3C)C(C)(C)C(=O)O)cnc1C)CC1(CC1)O2 (single isomer, unassigned) [Example 395, (*S)-3-(1-Cyclopropyl-4-methyl-1H-benzo[d][1,2,3]triazol-5-yl)-2,2-dimethyl-3-(6-methyl-5-((8′-methyl-1′,1′-dioxidospiro[cyclopropane-1,4′-pyrido[2,3-b][1,4,5]oxathiazepin]-2′(3′H)-yl)methyl)pyridin-3-yl)propanoic Acid] | 15.7 | 
< 1 | Cc1ccc([C@H](CC(=O)O)c2ccc3c(nnn3C3CC3)c2C)cc1CN1C[C@@H]2CCCCN2c2ncccc2S1(=O)=O (single isomer, unassigned) [Example 398, (*S)-3-(1-Cyclopropyl-4-methyl-1H-benzo[d][1,2,3]triazol-5-yl)-3-(3-(((*S)-5,5-dioxido-7,7a,8,9,10,11-hexahydro-6H-dipyrido[2,1-d:2′,3′-f][1,2,5]thiadiazepin-6-yl)methyl)-4-methylphenyl)propanoic Acid] | 1.4 | 
< 1 | Cc1ccc(C(CC(=O)O)c2ccc3c(nnn3C3CC3)c2C)cc1CN1C[C@@H]2CCCCN2c2ncccc2S1(=O)=O (single isomer, unassigned) [Example 399, (*R)-3-(1-Cyclopropyl-4-methyl-1H-benzo[d][1,2,3]triazol-5-yl)-3-(3-(((*S)-5,5-dioxido-7,7a,8,9,10,11-hexahydro-6H-dipyrido[2,1-d:2′,3′-][1,2,5]thiadiazepin-6-yl)methyl)-4-methylphenyl)propanoic Acid] | 92.9 | 
< 1 | Cc1ccc([C@@H](CC(=O)O)c2ccc3c(nnn3CC3CC3)c2C)cc1CN1C[C@H]2CCCN2c2ncccc2S1(=O)=O (single isomer, unassigned) [Example 401, (*R)-3-(1-(Cyclopropylmethyl)-4-methyl-1H-benzo[d][1,2,3]triazol-5-yl)-3-(3-(((R)-5,5-dioxido-7a,8,9,10-tetrahydropyrido[2,3-f]pyrrolo[2,1-d][1,2,5]thiadiazepin-6(7H)-yl)methyl)-4-methylphenyl)propanoic acid] | 2.7 | 
< 1 | Cc1ccc([C@H](CC(=O)O)c2ccc3c(nnn3CC3CC3)c2C)cc1CN1C[C@H]2CCCN2c2ncccc2S1(=O)=O (single isomer, unassigned) [Example 402, (*S)-3-(1-(Cyclopropylmethyl)-4-methyl-1H-benzo[d][1,2,3]triazol-5-yl)-3-(3-(((R)-5,5-dioxido-7a,8,9,10-tetrahydropyrido[2,3-f]pyrrolo[2,1-d][1,2,5]thiadiazepin-6(7H)-yl)methyl)-4-methylphenyl)propanoic Acid] | 27.9 | 
< 1 | Cc1ccc([C@@H](CC(=O)O)c2cc(OC3CC3)c3c(c2)nnn3C)cc1CN1C[C@H]2CCCCN2c2ncccc2S1(=O)=O (single isomer, unassigned) [Example 404, (*R)-3-(7-Cyclopropoxy-1-methyl-1H-benzo[d][1,2,3]triazol-5-yl)-3-(3-(((*R)-5,5-dioxido-7,7a,8,9,10,11-hexahydro-6H-dipyrido[2,1-d:2′,3′-f][1,2,5]thiadiazepin-6-yl)methyl)-4-methylphenyl)propanoic Acid] | 19.6 | 
< 1 | Cc1ccc([C@H](CC(=O)O)c2cc(OC3CC3)c3c(c2)nnn3C)cc1CN1C[C@H]2CCCCN2c2ncccc2S1(=O)=O (single isomer, unassigned) [Example 405, (*S)-3-(7-Cyclopropoxy-1-methyl-1H-benzo[d][1,2,3]triazol-5-yl)-3-(3-(((*R)-5,5-dioxido-7,7a,8,9,10,11-hexahydro-6H-dipyrido[2,1-d:2′,3′-f][1,2,5]thiadiazepin-6-yl)methyl)-4-methylphenyl)propanoic Acid] | 7.4 | 
< 1 | Cc1ccc([C@@H](c2ccn3c(C(F)(F)F)nnc3c2C)C(C)(C)C(=O)O)cc1CN1CC2(CCOCC2)Oc2ncccc2S1(=O)=O (single isomer, unassigned) [Example 409, (*S)-3-(3-((1′,1′-dioxido-2,3,5,6-tetrahydrospiro[pyran-4,4′-pyrido[2,3-b][1,4,5]oxathiazepin]-2′(3′H)-yl)methyl)-4-methylphenyl)-2,2-dimethyl-3-(8-methyl-3-(trifluoromethyl)-[1,2,4]triazolo[4,3-a]pyridin-7-yl)propanoic Acid] | 2.64 | 
< 1 | CCn1nnc2c(C)c([C@H](CC(=O)O)c3ccc(C)c(CN4CC5(CCOCC5)Oc5ccc(F)cc5S4(=O)=O)n3)ccc21 (single isomer, unassigned) [Example 418, (*S)-3-(1-ethyl-4-methyl-1H-benzo[d][1,2,3]triazol-5-yl)-3-(6-((8-fluoro-1,1-dioxido-2′,3′,5′,6′-tetrahydrospiro[benzo[b][1,4,5]oxathiazepine-4,4′-pyran]-2(3H)-yl)methyl)-5-methylpyridin-2-yl)propanoic Acid] | 0.96 | 
